# Reference: patent publication US6958324B2, “Inosine compounds and their use for treating or preventing an inflamation or a reperfusion disease” (Inotek Pharmaceuticals Corporation, priority 1998, dated 2005)
# Marks after values point to notes of the source that are not given here.
# Tests used:
# male BALB/c mice = experiment: Plasma cytokine levels after LPS challenge in endotoxemic mice; format: in vivo; conditions: 100 mg/kg i.p. 30 min before LPS 70 mg/kg i.p.
# Protocol: To determine whether inosine inhibits inflammatory cytokine release in vivo, male BALB/c mice were injected with inosine (100 mg/kg; i.p.) followed 30 minutes later by an i.p. injection of LPS (70 mg/kg). Plasma levels of the different cytokines were measured at various times (90 mm 2 h, 4 h, and 8 h) after the LPS challenge.
# The results are shown in FIGS. 1A-E. Data are mean ±SEM of n=8 mice. The asterisk in the figure indicates p<0.05. […] Inosine was also shown to augment IL-10 (FIG. 1E) production in endotoxemic mice. […] Inosine inhibits the production of proinflammatory cytokines, but also potentiates the formation of the anti-inflammatory IL-10. Accordingly, inosine is useful for treating or preventing an inflammation disease or a reperfusion disease.
# BALB/c mice = experiment: LPS-induced lethality (survival) in mice; format: in vivo; conditions: 100 mg/kg 30 min before 70 mg/kg i.p. LPS; 24-96 h; p<0.05 vs vehicle
# Protocol: Because inosine skewed the cytokine response towards an anti-inflammatory profile, the ability of inosine to decrease LPS-induced lethality in a murine model system was investigated. BALB/c mice were pretreated with drug vehicle (physiologic saline) or 100 mg/kg inosine 30 min before the injection of 70 mg/kg of i.p. LPS. Survival was recorded at 24, 48, 72, and 96 h after the LPS injection. Results from the summary of two different experiments are shown. N=16 animals in each group. Inosine improved survival rate at 24-96 h (p<0.05). Therefore, inosine conferred significant protection in this endotoxemic model. Thus, inosine is useful for treating or preventing an inflammation disease or a reperfusion disease.
# DSS mice [1] = experiment: DSS-induced inflammatory bowel disease model, inosine treatment; format: in vivo; conditions: 5% DSS 10 days, inosine 200 mg/kg/day orally
# Protocol: The effect of inosine in a mouse model of inflammatory disease was examined. Inosine was administered (oral administration, 100 mg/kg, 2 times a day), in a mouse model of inflammatory bowel disease induced by dextran sulfate solution (DSS). This system is well-characterized and is considered a reliable model of inflammatory bowel disease. Efficacy of a pharmaceutical compound in this model is taken as evidence that the compound is likely to be effective in human beings (Sasaki et al., Scand. J. Immunol. 51:23-8,2000; Gaudio et al, Dig. Dis. Sci. 44:1458-75, 1999; Murthy et al., Aliment Pharmacol. Ther. 13:251-60, 1999; Kimura et al., Arzneimittelforschung 48:1091-96, 1998; Dieleman et al., Scand. J Gastroenterol. Suppl. 223:99-104, 1997).
# Symptoms associated with the DSS model were induced as follows. Mice were patiented to a drinking water containing 5% DSS for 10 days, in the presence (n=10) or absence (n=10) of inosine treatment (200 mg/kg/day, orally). At the end of 10 days, animals were evaluated for the incidence of bloody diarrhea, for colon shortening, and colon histopathology. Colonic myeloperoxidase (MPO) and malondialdehyde (MDA) levels were measured. These parameters provide a good cross-section of the functional and inflammatory changes associated with the current model of inflammatory bowel disease.
# Significant protective effect of inosine in the presence of DSS is indicated as *p<0.05, when compared to the values with DSS alone in the absence of inosine.
# STZ diabetic mice = experiment: Streptozotocin-induced diabetes: blood glucose, diabetes incidence, pancreatic insulin content; format: in vivo
# Protocol: The effect of inosine was in a […] model of streptozotocin-induced diabetes was examined. Mice were treated with streptozotocin (40 mg/kg in citrate buffer) or vehicle (citrate buffer) i.p. for 5 consecutive days to induce diabetes. Blood glucose was monitored over the following 21 days using a one-touch blood glucose meter (Lifescan). […] Hyperglycemia was defined as non-fasting blood glucose level higher than 200 mg/dL. Mice were treated simultaneously with streptozotocin injection throughout the 21 days of the experiments and with vehicle or inosine (100 mg/kg oral gavage, twice a day). Samples of pancreas were removed on day 21 and weighed before being placed into 6 mls of acid ethanol (23:7:0.45 ethanol:dH2O:HCl) and homogenized. The pancreas samples were incubated for 72 h at 4° C. before being centrifuged. The insulin content of the supernatant was then determined using an ELISA assay.
# An “*” indicates significant reduction of circulating glucose or diabetes incidence in the inosine-treated streptozotocin rats when compared to vehicle-treated streptozotocin rats (p<0.05).
# An “*” in TABLE 7 indicates significant decreases in insulin content in response to streptozotocin when compared to control, and a “#” indicates significant preservation of pancreatic insulin content in the inosine-treated streptozotocin rats (p<0.05). Pancreatic insulin content at 21 days in streptozotocin diabetic mice receiving vehicle or inosine treatment.
# DSS mice [2] = experiment: DSS colitis, inosine versus 5′-IMS at 50, 100 and 300 μmoles/kg/day; format: in vivo; conditions: for protection against colonic shortening / protection against visible histological damage: 50, 100 and 300 μmoles/kg/day, vs vehicle treated DSS animals; for dose at which colonic MDA levels were reduced: first statement ('For example'); for dose at which MDA levels were reduced (second statement, 'Similarly'): second statement of b313
# Source text: The effect of various doses (50, 100 and 300 μmoles/kg/day) inosine and IMS on the outcome of DSS (dextran sodium sulfate) colitis in mice. Colonic length, gross histologic score, colonic MDA content and colonic MPO content have been determined. N=10 animals per experimental groups. *p<0.05 and **p<0.01 indicates significant improvements in drug treated DSS animals, when compared to vehicle treated DSS animals. Mean +SEM are presented, except for histological scores, which are presented as medians.
# Significant improvements in 5′-IMS treated DSS animals was observed as compared to vehicle treated DSS animals. Mean ±SEM are shown, except for the histological scores, which are presented as medians.
# [3] = test system: peritoneal macrophages stimulated with LPS/IFN-γ; experiment: IL-12 and TNF production by stimulated peritoneal macrophages exposed to inosine; format: cell-based
# Protocol: To determine the effect of inosine on inflammatory cytokine production, stimulated macrophages were exposed to inosine at 0 to 1000 μM, after which production of cytokines IL-12 and TNF was measured.
# DBA/1J mice [4] = experiment: Collagen-induced arthritis: MPO and MDA levels in paws; format: in vivo; conditions: 100 or 200 mg/kg/day, BID, gavage; paws 24 days after second collagen injection
# Protocol: (§1) Mice were evaluated daily for arthritis by using a macroscopic scoring system ranging from 0-4 (0=no signs of arthritis, 1=swelling or redness of the paw or one digit, 2=two joints involved, 3=more than 2 joints involved, 4=severe arthritis of the entire paw). The arthritic index for each mouse was calculated by adding the four scores of the individual paws. […] At study termination, paws were removed from all animals in each treatment group and randomly assigned to MPO, MDA or chemokines/cytokine measurements.
# (§2) The effect of 5′-IMS on the levels of MPO and MDA in paws of DBA/1J mice treated with subdermal injections of collagen to induce arthritis was studied. Gavage treatment with 5′-IMS (100 or 200 mg/kg/day, BID) commenced on the day of the second collagen injection and paws were taken 24 days later and homogenized for MPO and MDA measurements. Data are expressed as mean ±SEM from n=10 animals. […] Accordingly, 5′-IMS, an illustrative inosine compound, is useful for treating or preventing an inflammation disease, particularly arthritis, in a patient.
# DBA/1J mice [5] = experiment: Collagen-induced arthritis: incidence and severity; format: in vivo
# Protocol: The effect of 5′-IMS in a murine model system of collagen-induced arthritis was studied. Male DBA/1J mice were injected intradermally on day 1 with 0.1 mL of an emulsion of bovine type II collagen plus complete Freunds's adjuvant (CFA). A second injection was administered on day 21. Treatment with 5′-IMS (100 or 200 mg/kg/day, BID) per gavage was begun on the day of the second collagen/CFA injection and continued throughout the study, which was terminated on day 45 (24 days after the second injection).
# as §1
# Arthritis was induced in DBA/1J mice by two 100 μL sub-dermal injections of a 1:1 mixture of bovine collagen type II (1 mg/mL) and complete Freund's adjuvant (1 mg/mL) 21 days apart. Gavage treatment with 5′-IMS (100 or 200 mg/kg/day, BID) commenced on the day of the second injection. […] Statistical analysis was performed by Student's t-test or fisher's exact test as appropriate. […]
# DBA/1J mice [6] = experiment: Collagen-induced arthritis: chemokine and cytokine levels in paws; format: in vivo; conditions: 200 mg/kg/day gavage, 24 days after second collagen injection
# Protocol: as §1
# as §2, with “the chemokine MIP-1α” for “MPO”, “the cytokines 1L-12 and TNF-α” for “MDA”, “analysis. […]” for “MPO and MDA measurements.”
# [7] = day 0, inosine 100 mg/kg oral gavage twice a day
smiles,measurement,setting,value
"OC[C@H]1O[C@@H](n2cnc3c(O)ncnc32)[C@H](O)[C@@H]1O [Inosine, inosine]",production of TNF-α (plasma),male BALB/c mice; FIG. 1A,suppress
same,production of IL-12 (plasma),male BALB/c mice; FIG. 1B,suppress
same,production of IFN-γ (plasma),male BALB/c mice; FIG. 1C,suppress
same,production of MIP-1α (plasma),male BALB/c mice; FIG. 1D,suppress
same,IL-10 production (plasma),male BALB/c mice; FIG. 1E,augment
same,survival rate,BALB/c mice,improved
same,Gut histological damage (1-4 scale),DSS mice [1]; DSS alone 3.6 ± 0.4,1.2 ± 0.4*
same,Gut malondialdehyde levels,DSS mice [1]; DSS alone 3.7 ± 0.8,2.1 ± 0.5* nmol/mg protein
same,Colonic length,"DSS mice [1]; DSS alone 4.2 ± 0.1, in cm (unit assumed)",5.1 ± 0.1*
same,Weight loss of the animals at 10 days,DSS mice [1]; DSS alone 20 ± 2,13 ± 1* %
same,Incidence of rectal bleeding,DSS mice [1]; DSS alone 90,20* %
same,Gut myeloperoxidase levels,DSS mice [1]; DSS alone 296 ± 87,88 ± 14* nU/mg protein
same,Pancreatic insulin content,"STZ diabetic mice; 21 days, inosine treated, STZ vehicle 6 ± 1, control 68 ± 11",21 ± 4# ng insulin/mg protein
same,Diabetes Incidence,STZ diabetic mice; [7],0%
same,Mean Blood Glucose,STZ diabetic mice; [7],95 ± 4 mg/dL
same,Median Blood Glucose,STZ diabetic mice; [7],96 mg/dL
same,Diabetes Incidence,"STZ diabetic mice; day 7, inosine 100 mg/kg oral gavage twice a day, STZ vehicle 8",0%
same,Mean Blood Glucose,"STZ diabetic mice; day 7, inosine 100 mg/kg oral gavage twice a day, STZ vehicle 137 ± 7",112 ± 6* mg/dl
same,Median Blood Glucose,"STZ diabetic mice; day 7, inosine 100 mg/kg oral gavage twice a day, STZ vehicle 146",117* mg/dl
same,Diabetes Incidence,"STZ diabetic mice; day 21, inosine 100 mg/kg oral gavage twice a day, STZ vehicle 67",25* %
same,Mean Blood Glucose,"STZ diabetic mice; day 21, inosine 100 mg/kg oral gavage twice a day, STZ vehicle 231 ± 15",152 ± 20* mg/dl
same,Median Blood Glucose,"STZ diabetic mice; day 21, inosine 100 mg/kg oral gavage twice a day, STZ vehicle 260",130* mg/dl
same,protection against colonic shortening,DSS mice [2],not
same,protection against visible histological damage,DSS mice [2],not
same,dose at which colonic MDA levels were reduced,DSS mice [2],100 µmol/kg/day
same,"dose at which MDA levels were reduced (second statement, 'Similarly')",DSS mice [2],300 µmol/kg/day
same,IL-12,"[3]; Inosine 10 μM, control 6.84 ± 0.39",5.9 ± 0.19 ng/mL
same,TNF,"[3]; Inosine 10 μM, control […] ± 1.89",10.08 ± 1.3 ng/mL
same,IL-12,[3]; Inosine 30 μM,5.1 ± 0.14 ng/mL
same,TNF,[3]; Inosine 30 μM,8.38 ± 0.14 ng/mL
same,IL-12,[3]; Inosine 100 μM,4.46 ± 0.62 ng/mL
same,TNF,[3]; Inosine 100 μM,7.61 ± 0.33 ng/mL
same,IL-12,[3]; Inosine 300 μM,4.94 ± 0.06 ng/mL
same,TNF,[3]; Inosine 300 μM,5.45 ± 0.52 ng/mL
same,IL-12,[3]; Inosine 1000 μM,4.34 ± 0.39 ng/mL
same,TNF,[3]; Inosine 1000 μM,5.62 ± 0.88 ng/mL
"O=S(=O)(O)OC[C@H]1O[C@@H](n2cnc3c(O)ncnc32)[C@H](O)[C@@H]1O [5′-IMS, inosine 5′-monosulfate]",lipid peroxidation (reflected by MDA) in joints,DBA/1J mice [4],profoundly reduced
same,neutrophil infiltration (reflected by MPO concentration) in joints,DBA/1J mice [4],profoundly reduced
same,protection against colonic shortening,DSS mice [2],provided significant protection
same,protection against visible histological damage,DSS mice [2],provided significant protection
same,dose at which colonic MDA levels were reduced,DSS mice [2],50 µmol/kg/day
same,"dose at which MDA levels were reduced (second statement, 'Similarly')",DSS mice [2],50 µmol/kg/day
same,severity of arthritis,"DBA/1J mice [5]; 100 or 200 mg/kg/day, BID, gavage",significantly reduced
same,prevalence of arthritis,"DBA/1J mice [5]; both dosing regimens (100 or 200 mg/kg/day, BID, gavage), day 24 post second collagen injection, reduced from 90%",25%
same,levels of MIP-1α in paws,DBA/1J mice [6],significantly reduced
same,levels of TNF-α in paws,DBA/1J mice [6],significantly reduced
same,IL-12 levels in paws,DBA/1J mice [6]; p=0.09,tended to reduce
